In PMC10149936, “Cofilin activation in pancreatic acinar cells plays a pivotal convergent role for mediating CCK-stimulated enzyme secretion and growth” (Frontiers in Physiology, 2023):

Tests used:
p38α = conditions: reference not given; cited from earlier work
[1] = test system: cofilin (pS3) in rat pancreatic acini; experiment: cofilin activation (phospho-pS3 cofilin Western blot) in isolated rat pancreatic acini; type: cell-based; conditions: for reversal of cofilin dephosphorylation by CCK-8: Wortmannin 1 µM, LY294002 100 µM, SB202190 10 µM, U0126 10 µM, Y-27632 10 µM 1 h, SP600125 20 µM 3 h
Method: (§1) Pancreatic acini preparations were obtained by collagenase digestion as previously described ([Bissonnette et al., 1984]; [Sato et al., 1989]; [Ramos-Alvarez and Jensen, 2018]). After collagenase digestion, dispersed acini were preincubated with different inhibitors in standard incubation solution ([Ramos-Alvarez and Jensen, 2018]; [Ramos-Ãlvarez et al., 2020]) for 3 h at 37°C under conditions specific for PKD/PKC, Src, PI3K, MAPKs, SSH1, LIMK, cofilin, other phosphatases and PAK4 inhibitors, as described previously ([Ramos-Alvarez and Jensen, 2018]; [Ramos-Ãlvarez et al., 2020]). Isolated acini and CCK1-R/Panc-1 cells (M&M 2.2.1) were also preincubated with two SSH1 inhibitors, D3 (25 μM, 1 h) ([Li et al., 2015]) or SE (50 μM, 3 h for acini; 24 h for CCK1-R/Panc-1 cells) ([Lee et al., 2017]). After preincubation, 1 mL aliquots of dispersed acini were incubated at 37°C for 3–15 min with CCK-8 (0.3 nM or 100 nM), for 5–15 min with TPA (1 µM) or without stimulants, used as control. Cells were lysed in lysis buffer (50 mM Tris/HCl pH 7.5, 150 mM NaCl, 1% Triton X-100, 1% deoxycholate, 0.1% sodium azide, 1 mM EGTA, 0.4 mM EDTA, 0.2 mM sodium orthovanadate, 1 mM PMSF, and one protease inhibitor tablet per 10 mL). After sonication, lysates were centrifuged at 10,000×g for 15 min at 4°C and protein concentration was measured using the Bio-Rad protein assay reagent. Finally, cells were processed as below for Western blotting.
(§2) Both concentrations of CCK-8 were used because CCK-8 is reported to have different responses with physiological and supraphysiological concentrations contributing to physiological and pathophysiological processes such as pancreatitis ([Dufresne et al., 2006]).
(§3) Western blotting and immunoprecipitation were performed as described previously ([Ramos-Alvarez and Jensen, 2018]). Whole cell lysates were subjected to SDS-PAGE using 4%–20% Tris–Glycine gels. […] Finally, membranes were then washed again twice in blocking buffer for 4 min, twice in washing buffer for 4 min, incubated for 4 min with chemiluminescence detection reagents. The intensity of the protein bands was measured using GeneTools software from Syngene, which were assessed in the linear detection range.
All experiments were performed at least 3 times. Data are presented as mean ± SEM and were analyzed with the non-parametric Kruskal–Wallis analysis (data was not normally distributed) and the Dunn’s multiple comparison test using the GraphPad Prism 8.0 software. P values < 0.05 were considered significant.
(A) Isolated pancreatic acini were incubated in the absence or presence of CCK-8 (100 nM), carbachol (1 μM), bombesin (1 nM), secretin (1 nM) or VIP (1 nM) for 1 min and then lysed. (B) Isolated pancreatic acini were incubated in the absence or presence of CCK-8 and CCK-JMV (at the indicate concentrations) for 3 min and then lysed. Western blots were analyzed using anti-pS3 cofilin, which mediates the activation state of cofilin. Bands were visualized using chemiluminescence and quantified by densitometry.

p38β = conditions: reference not given; cited from earlier work
[2] = test system: LIMK (pT508) in pancreatic acini; experiment: LIMK phosphorylation (pT508 LIMK Western blot) in isolated rat pancreatic acini; type: cell-based
Method: as §1, §2, §3
Isolated pancreatic acini were incubated with either no addition (control), CCK-8 (0.3 and 100 nM) or TPA (1 µM) for the indicated periods of time and then lysed. Western blots were analyzed using anti-pT508 LIMK, anti-pS3 cofilin and anti-pS978 SSH1, which […] the activation states of LIMK, cofilin and SSH1. Bands were visualized using chemiluminescence and quantified by densitometry.

[3] = test system: cofilin (pS3) in CCK1-R/Panc-1 cells; experiment: cofilin activation (pS3 cofilin Western blot) in CCK1-R/Panc-1 cells; type: cell-based, human; conditions: CCK-8 0.3 or 100 nM; D3 25 µM 1 h or SE 50 µM 24 h
Method: CCK1 receptor transfected Panc-1 (CCK1-R/Panc-1) cells ([Berna et al., 2009]) and AR42J cells, were cultured in DMEM supplemented with 10% FBS and 1% penicillin/streptomycin and in RPMI supplemented with 10% FBS and 1% penicillin/streptomycin, respectively; and split 1:10 weekly with trypsin/EDTA, after washing in PBS. Finally, cells were seeded in 6-well plate and serum starved overnight, until they were 80% confluent. Cells were incubated at 37°C in 5% CO2/95% air. AR42J cells were treated with 100 nM dexamethasone for 72°h, which stimulates their differentiation into exocrine cells ([Logsdon, 1986]).
Pancreatic acini preparations were obtained by collagenase digestion as previously described ([Bissonnette et al., 1984]; [Sato et al., 1989]; [Ramos-Alvarez and Jensen, 2018]). […] Isolated acini and CCK1-R/Panc-1 cells (M&M 2.2.1) were also preincubated with two SSH1 inhibitors, D3 (25 μM, 1 h) ([Li et al., 2015]) or SE (50 μM, 3 h for acini; 24 h for CCK1-R/Panc-1 cells) ([Lee et al., 2017]). […] After sonication, lysates were centrifuged at 10,000×g for 15 min at 4°C and protein concentration was measured using the Bio-Rad protein assay reagent. […]
Western blotting and immunoprecipitation were performed as described previously ([Ramos-Alvarez and Jensen, 2018]). […] The intensity of the protein bands was measured using GeneTools software from Syngene, which were assessed in the linear detection range. […]
FIGURE 3 Effect of two SSH1 inhibitors, D3 and SE (A–C), or SSH1 siRNA (D), on the ability of CCK-8 (0.3 and 100 nM) to activate LIMK and cofilin in pancreatic acini (A/B) and activate cofilin in CCK1-R/Panc-1 cells (C/D). […] Western blots were analyzed using anti-pS3 cofilin and anti-pT508 […], and the knockdown effect of SSH1 was confirmed by Western blots using SSH1 (C-term) antibody. Bands were visualized using chemiluminescence and quantified by densitometry. […] Results are expressed as % of basal stimulation of the control group. *, p < 0.05 compared to the control group; ∞, p < 0.05 compared to stimulants without inhibitors. […]

PP2A / PP1 = conditions: low concentrations; ref Ishihara et al., 1989; Takai et al., 1992; Lutz et al., 1993; Schmidt et al., 1994; Walsh et al., 1997; cited from earlier work
Text: (Figures 5, 6) In human T lymphocytes, neurons, the 293 T cell line (human embryonic kidney 293 cells) and HeLa cells, it is reported that activation of cofilin can occur due its dephosphorylation through the co-stimulation activation of accessory receptors (e.g.,.CD2, CD3 or CD28) by CD3xCD28 mAb, with Endothelin-1 (ET-1), and the Ca^2+ ionophore A23187, which is mediated by activation of serine protein phosphatases ([Ambach et al., 2000]; [Wang et al., 2005]; [Tam et al., 2019]). Therefore, to explores the possible role of the protein phosphatases PP1, PP2A, PP2B in CCK-8-induced activation ...

[4] = test system: cofilin / phospho-PP2A association; experiment: co-immunoprecipitation of cofilin with phospho-PP2A (pY307) in pancreatic acini; type: cell-based, rat; conditions: legend: kbNB 0.1 µM or PP2 10 µM, 3 h; CCK-8 100 nM, TPA 1 µM
Method: For co-immunoprecipitation, 600 μg of protein was incubated with 15 μL of the anti-cofilin antibody (Santa Cruz Biotechnology, Inc. Dallas, TX) and 25 μL of protein A/G agarose beads (Thermo-Fisher Scientific. Waltham, MA) overnight at 4°C under agitation. Samples were washed three times with lysis buffer, re-suspended in 12.5 μL of Sample Buffer, Laemlii 2x concentrate and boiled for 5 min before western blotting.
FIGURE 8 Effect of a PKD inhibitor, kbNB, or a Src inhibitor, PP2, on the ability of CCK-8 (100 nM) and TPA (1 µM) to stimulate the association of cofilin with either phospho-PP2A (A) or total PP2A (B). Isolated pancreatic acini were incubated in the absence or presence of kbNB (0.1 µM) or PP2 (10 µM) for 3 h and then incubated with no addition (control), CCK-8 (100 nM, 3 min) or TPA (1 μM, 5 min), and then lysed. Equal amounts of protein were co-immunoprecipitated with an anti-cofilin (Santa Cruz, SC-376476) and then subjected to Western blots using anti-pY307 PP2A and anti-PP2A. Bands were visualized using chemiluminescence and quantified by densitometry. Top: Results of a representative blot of four independent experiments are shown. Bottom: Means ± S.E. of at least 4 independent experiments. Results are expressed as % of basal stimulation of the control group. N.S., No significant.

MEK1 = conditions: non ATP-competitive; reference not given; cited from earlier work
MEK2 = conditions: non ATP-competitive; reference not given; cited from earlier work
[5] = SE 50 µM 3 h or D3 25 µM 1 h, no stimulant

## Oc1ccc(-c2nc(-c3ccncc3)c(-c3ccc(F)cc3)[nH]2)cc1 [SB202190]
p38α
  IC50: […]
[1]; CCK-8 0.3 and 100 nM 3 min
  reversal of cofilin dephosphorylation by CCK-8: not PI3K or p38
p38β
  IC50: […]

## Cc1ccccc1N1C(=O)/C(=C/c2ccc(OCc3ccc(C(=O)O)cc3)cc2)SC1=S [D3, (Z)-4-((4-((4-oxo-2-thioxo-3-(o-tolyl)thiazolidin-5-ylidene)methyl)phenoxy)methyl)benzoic acid]
[2]; Rattus norvegicus, CCK-8 0.3 or 100 nM, 5 min, SE 50 µM 3 h or D3 25 µM 1 h preincubation, read-out: inhibition of CCK-8's dephosphorylation of LIMK
  inhibition at 25 µM: 20%
[2]; [5]
  effect on basal phosphorylation of LIMK: Neither D3 nor SE affected the basal phosphorylation of LIMK or cofilin
[3]
  inhibition of CCK-8-induced dephosphorylation of cofilin: completely inhibited
[1]; Rattus norvegicus, CCK-8 0.3 or 100 nM, 5 min, SE 50 µM 3 h or D3 25 µM 1 h preincubation, n at least 4, read-out: inhibition of CCK-8-caused cofilin dephosphorylation
  inhibition at 25 µM: 32 to 49%
[1]; [5]
  effect on basal phosphorylation of cofilin: Neither D3 nor SE affected the basal phosphorylation of LIMK or cofilin

## COC[C@@H]([C@H](O)[C@H](O)C(=O)NCC[C@H](C)c1nc(/C=C/C[C@@H]2O[C@]3(C[C@@H](O)[C@@H]2C)O[C@H]([C@H](C[C@H](O)[C@H](C)[C@H](O)[C@H](C)/C=C(C)/C(C)=C/C=C/C(C)=C\C#N)OC)[C@H](OP(=O)(O)O)C3(C)C)co1)N(C)C [calyculin A]
PP2A / PP1
  selectivity PP1/PP2A/PP2B: inhibits equally PP1 and PP2A activity, but not PP2B
[1]; calyculin A 1 nM or okadaic acid 10 nM, 3 h, no stimulant
  decrease of basal level of cofilin phosphorylation: 24%
[1]; calyculin A 1 nM or okadaic acid 10 nM, 3 h, CCK-8 0.3 and 100 nM 3 min
  inhibition of cofilin activation stimulated by CCK-8: completely inhibited

## CN(C)CCCn1cc(C2=C(c3c[nH]c4ccccc34)C(=O)NC2=O)c2ccccc21 [GF109203X]
[1]; GFX 5 µM, kbNB 0.1 µM or PP2 10 µM, 3 h, no stimulant
  effect on basal phosphorylation level of cofilin: None of these inhibitors altered the basal phosphorylation level of cofilin
[1]; GFX 5 µM, kbNB 0.1 µM or PP2 10 µM, 3 h, CCK-8 100 nM 3 min, TPA 1 µM 5 min
  reversal of cofilin dephosphorylation stimulated by CCK-8 and TPA: completely reversed
[4]
  inhibition of decrease in phospho-PP2A co-immunoprecipitation stimulated by CCK-8 and TPA: completely inhibited

## N#CC(=C(/N)Sc1ccccc1N)/C(C#N)=C(/N)Sc1ccccc1N [U0126]
MEK1
  IC50: 72 nM
[1]; CCK-8 0.3 and 100 nM 3 min
  reversal of cofilin dephosphorylation by CCK-8: Only preincubation with the JNK inhibitor, SP600125 (Figure 10C), and the ROCK inhibitor, Y-27632, (Figure 10D), completely reversed cofilin dephosphorylation by CCK-8
MEK2
  IC50: 58 nM
